Test results from patent publication US20130030017A1, “QUINOLINE DERIVATIVES AS ANTIBACTERIAL AGENTS” (priority 2005, published 2013).
Converted amounts (≈) assume the structure as drawn.

How the values were obtained:
[1] = test system: Streptococcus pyogens (ATCC8668); assay: Microtitre plate assay, IC90 determination (SPY 8668); type: cell-based; settings: 90% inhibitory concentration for bacterial growth, 37° C., resazurin fluorescence; for IC90 SPY 8668: 24 hours; for IC90: Streptococcus, ATCC8668, 24 h
Protocol: (§1) The bacteria used in this study were grown overnight in flasks containing 100 ml Mueller-Hinton Broth (Becton Dickinson—cat. no. 275730) in sterile de-ionized water, with shaking, at 37° C. Stocks (0.5 ml/tube) were stored at −70° C. until use. Bacteria titrations were performed in microtiter plates and colony forming units (CFUs) were determined. In general, an inoculum level of approximately 100 CFUs was used for susceptibility testing.
(§2) Flat-bottom, sterile 96-well plastic microtiter plates were filled with 180 μl of sterile deionized water, supplemented with 0.25% BSA. Subsequently, stock solutions (7.8× final test concentration) of compounds were added in 45 μl volumes in column 2 Serial five-fold dilutions (45 μl in 180 μl) were made directly in the microtiter plates from column 2 to reach column 11. Untreated control samples with (column 1) and without (column 12) inoculum were included in each microtiter plate. Depending on the bacteria type, approximately 10 to 60 CFU per well of bacteria inoculum (100 TCID50), in a volume of 100 μl in 2.8× Mueller-Hinton broth medium, was added to the rows A to H, except column 12. The same volume of broth medium without inoculum was added to column 12 in row A to H. The cultures were incubated at 37° C. for 24 hours under a normal atmosphere (incubator with open air valve and continuous ventilation). At the end of incubation, one day after inoculation, the bacterial growth was quantitated fluorometrically. Therefore resazurin (0.6 mg/ml) was added in a volume of 20 μl to all wells 3 hours after inoculation, and the plates were re-incubated overnight. A change in colour from blue to pink indicated the growth of bacteria. The fluorescence was read in a computer-controlled fluorometer (Cytofluor Biosearch) at an excitation wavelength of 530 nm and an emission wavelength of 590 nm. The % growth inhibition achieved by the compounds was calculated according to standard methods. The IC90 (expressed in μg/ml) was defined as the 90% inhibitory concentration for bacterial growth.

[2] = test system: Staphylococcus aureus (ATCC29213); assay: Microtitre plate assay, IC90 determination (STA 29213); type: cell-based; settings: 90% inhibitory concentration for bacterial growth, 37° C., resazurin fluorescence; for IC90 STA 29213: 24 hours; for IC90: Staphylococcus aureus, ATCC29213, 24 h
Protocol: as §1, §2

[3] = test system: Streptococcus pneumoniae (ATCC6305); assay: Microtitre plate assay, IC90 determination (SPN 6305); type: cell-based; settings: 90% inhibitory concentration for bacterial growth, 37° C., resazurin fluorescence; for IC90 SPN 6305: 24 hours; for IC90: Streptococcus pneumoniae, ATCC6305, 24 h
Protocol: as §1, §2

[4] = test system: Pseudomonas aeruginosa (ATCC27853); assay: Microtitre plate assay, IC90 determination (PAE 27853); type: cell-based; settings: 90% inhibitory concentration for bacterial growth, 37° C., 24 hours, resazurin fluorescence
Protocol: as §1, §2

[5] = test system: Enterococcus faecalis (ATCC29212); assay: Microtitre plate assay, IC90 determination (EFA 29212); type: cell-based; settings: 90% inhibitory concentration for bacterial growth, 37° C., resazurin fluorescence; for IC90 EFA 29212: 24 hours
Protocol: as §1, §2

[6] = test system: methicilline resistant Staphylococcus aureus (MRSA) (a clinical isolate from the University of Antwerp); assay: Microtitre plate assay, IC90 determination (STA RMETH); type: cell-based; settings: 90% inhibitory concentration for bacterial growth, 37° C., 24 hours, resazurin fluorescence
Protocol: as §1, §2

Compound | IC90 SPY 8668 [1] [µg/mL] | IC90 STA 29213 [2] [µg/mL] | melting point [°C] | IC90 SPN 6305 [3] [µg/mL] | IC90 PAE 27853 [4] [µg/mL] | IC90 EFA 29212 [5] [µg/mL] | IC90 [2] [µg/mL] | IC90 [3] [µg/mL] | IC90 [1] [µg/mL] | IC90 ([5]; Enterococcus faecalis, ATCC29212, 24 h) [µg/mL] | IC90 [6] [µg/mL] | IC90 STA RMETH [6] [µg/mL]
COc1ccc(CCC(O)(CCN(C)C)C(c2ccc(Cl)cc2)c2cc3cc(Br)ccc3nc2OC)cc1 (stereo not drawn) [Compound 21] | 1.9 (≈ 3.18 µM) | 1.9 (≈ 3.18 µM) | 142 | 2.1 (≈ 3.51 µM) | 1.9 (≈ 3.18 µM) | 1.9 (≈ 3.18 µM) |  |  |  |  |  | 
CSc1nc2ccc(C)cc2cc1C(c1ccccc1)C(O)(CCc1ccccc1)CCN(C)C (stereo not drawn) [Compound 29] |  | 48.5 (≈ 100 µM) | 180 | 7.7 (≈ 15.9 µM) |  |  |  |  |  |  |  | 
CSc1nc2ccc(Br)cc2cc1C(c1ccc(Cl)cc1)C(O)(CCc1ccccc1)CCN(C)C (stereo not drawn) [Compound 32] |  | 9.3 (≈ 15.9 µM) | 222 | 2.1 (≈ 3.6 µM) |  |  |  |  |  |  |  | 
COc1nc2ccc(Br)cc2cc1C(c1ccccc1)C(O)(CCc1ccc(F)cc1)CCN1CCCCC1 (stereo not drawn) [Compound 34] |  | 59.2 (≈ 100 µM) | 194 | 9.4 (≈ 15.9 µM) |  |  |  |  |  |  |  | 
CNCCC(O)(CCc1ccc(F)cc1)C(c1ccccc1)c1cc2ccccc2nc1OC (stereo not drawn) [Compound 37] |  |  | 134 |  |  |  | 2.9 (≈ 6.32 µM) | 0.3 (≈ 0.654 µM) |  |  |  | 
CNCCC(O)(CCc1ccc(F)cc1)C(c1ccccc1)c1cc2cc(Br)ccc2nc1OC (stereo not drawn) [Compound 39] |  |  | 140 |  |  |  | 1.7 (≈ 3.16 µM) | 0.3 (≈ 0.558 µM) |  |  |  | 
COc1nc2ccc(Br)cc2cc1C(c1ccccc1)C(O)(CCN(C)C)Cc1cccc2ccccc12 (stereo not drawn) [Compound 41] |  | 57.0 (≈ 100 µM) | 112 |  |  |  |  | 2.3 (≈ 4.04 µM) |  |  |  | 
CCOCCOCCOc1nc2ccc(Br)cc2cc1C(c1ccccc1)C(O)(CCc1ccccc1)CCN(C)C (stereo not drawn) [Compound 43] |  | 10.1 (≈ 15.9 µM) | 94 |  | 10.1 (≈ 15.9 µM) |  |  | 2.3 (≈ 3.62 µM) | 10.1 (≈ 15.9 µM) | 10.1 (≈ 15.9 µM) |  | 
COc1nc2ccc(Br)cc2cc1C(c1ccc(C)cc1)C(O)(CCc1ccccc1)CCN(C)C (stereo not drawn) [Compound 65] |  | 3.9 (≈ 7.12 µM) |  |  | 1.7 (≈ 3.1 µM) | 1.7 (≈ 3.1 µM) |  | 0.8 (≈ 1.46 µM) | 1.7 (≈ 3.1 µM) |  | 10.9 (≈ 19.9 µM) | 
COc1nc2ccc(Br)cc2cc1C(c1ccc(C)cc1)C(O)(CCc1ccccc1)CCN(C)C (stereo not drawn) [Compound 66] | 1.7 (≈ 3.1 µM) | 1.7 (≈ 3.1 µM) |  | 0.8 (≈ 1.46 µM) | 43.5 (≈ 79.4 µM) | 9.7 (≈ 17.7 µM) |  |  |  |  |  | 12.3 (≈ 22.5 µM)
COc1nc2ccc(Br)cc2cc1C(c1ccc(Cl)cc1)C(O)(CCc1ccccc1)CCN(C)C (stereo not drawn) [Compound 69] | 4.0 (≈ 7.04 µM) |  |  | 0.5 (≈ 0.88 µM) | 1.8 (≈ 3.17 µM) | 1.8 (≈ 3.17 µM) | 1.8 (≈ 3.17 µM) |  |  |  | 12.7 (≈ 22.4 µM) | 
COc1nc2ccc(Br)cc2cc1C(c1ccc(Cl)cc1)C(O)(CCc1ccccc1)CCN(C)C (stereo not drawn) [Compound 70] | 45.1 (≈ 79.4 µM) | 1.8 (≈ 3.17 µM) |  | 1.8 (≈ 3.17 µM) | 45.1 (≈ 79.4 µM) | 56.8 (≈ 100 µM) |  |  |  |  |  | 12.7 (≈ 22.4 µM)
COc1ccc(C(c2cc3cc(Br)ccc3nc2OC)C(O)(CCc2ccccc2)CCN(C)C)cc1 (stereo not drawn) [Compound 74] | 1.8 (≈ 3.19 µM) | 1.8 (≈ 3.19 µM) |  | 1.8 (≈ 3.19 µM) | 1.8 (≈ 3.19 µM) | 1.8 (≈ 3.19 µM) |  |  |  |  | 12.6 (≈ 22.4 µM) | 
